Article PMC3642328, “Ataxia Telangiectasia-Mutated (ATM) Kinase Activity Is Regulated by ATP-driven Conformational Changes in the Mre11/Rad50/Nbs1 (MRN) Complex*^([image sbox.jpg])” (The Journal of Biological Chemistry, 2013)

Experiments:
Format in all cases: biochemical
[1] = target: T1, MRN (nucleotide site of Rad50) (Homo sapiens, UniProt Q92878); test: ATM kinase assay with analog-sensitive ATM Y2755A; conditions: N6-furfuryl-ATP as ATM nucleotide; MRN/DNA; AMP-PNP supports MRN activation of ATM
T1 construct: full-length Mre11/Rad50/Nbs1 coexpressed in Sf21 insect cells, purified; with Double-strand break repair protein MRE11; Nibrin
T1 sequence (Q92878 1-1312): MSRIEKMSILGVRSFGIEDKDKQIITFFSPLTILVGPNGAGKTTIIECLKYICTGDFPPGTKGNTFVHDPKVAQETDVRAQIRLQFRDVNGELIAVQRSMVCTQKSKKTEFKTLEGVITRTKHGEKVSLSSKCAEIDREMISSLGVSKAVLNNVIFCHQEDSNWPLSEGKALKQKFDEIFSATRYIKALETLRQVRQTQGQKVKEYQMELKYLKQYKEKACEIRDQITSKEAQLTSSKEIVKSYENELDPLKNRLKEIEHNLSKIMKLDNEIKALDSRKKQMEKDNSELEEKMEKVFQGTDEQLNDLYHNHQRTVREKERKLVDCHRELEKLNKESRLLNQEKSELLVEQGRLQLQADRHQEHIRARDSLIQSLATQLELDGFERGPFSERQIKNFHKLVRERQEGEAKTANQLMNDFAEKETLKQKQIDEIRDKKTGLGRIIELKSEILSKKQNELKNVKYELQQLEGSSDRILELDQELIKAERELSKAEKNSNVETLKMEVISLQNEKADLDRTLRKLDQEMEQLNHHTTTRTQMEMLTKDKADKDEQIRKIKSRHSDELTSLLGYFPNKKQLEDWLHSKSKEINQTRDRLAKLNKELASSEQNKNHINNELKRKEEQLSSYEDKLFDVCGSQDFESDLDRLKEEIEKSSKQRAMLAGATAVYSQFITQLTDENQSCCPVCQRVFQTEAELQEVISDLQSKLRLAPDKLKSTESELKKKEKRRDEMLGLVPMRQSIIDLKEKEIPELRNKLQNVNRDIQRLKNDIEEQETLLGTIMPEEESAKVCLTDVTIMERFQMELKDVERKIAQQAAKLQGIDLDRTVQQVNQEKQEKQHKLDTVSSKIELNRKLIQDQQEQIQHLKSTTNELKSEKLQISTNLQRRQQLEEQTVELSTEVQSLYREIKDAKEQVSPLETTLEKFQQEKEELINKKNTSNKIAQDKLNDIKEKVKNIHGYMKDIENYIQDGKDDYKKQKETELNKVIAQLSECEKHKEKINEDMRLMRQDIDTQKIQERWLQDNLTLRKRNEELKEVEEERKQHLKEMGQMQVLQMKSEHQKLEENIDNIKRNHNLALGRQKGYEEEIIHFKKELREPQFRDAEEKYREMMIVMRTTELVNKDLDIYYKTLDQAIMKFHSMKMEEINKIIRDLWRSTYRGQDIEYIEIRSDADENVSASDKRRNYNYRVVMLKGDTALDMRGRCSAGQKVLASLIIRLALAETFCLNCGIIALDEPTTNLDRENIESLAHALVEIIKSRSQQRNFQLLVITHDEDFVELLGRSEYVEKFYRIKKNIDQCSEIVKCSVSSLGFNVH
T1 sequence (P49959 2-708 partner): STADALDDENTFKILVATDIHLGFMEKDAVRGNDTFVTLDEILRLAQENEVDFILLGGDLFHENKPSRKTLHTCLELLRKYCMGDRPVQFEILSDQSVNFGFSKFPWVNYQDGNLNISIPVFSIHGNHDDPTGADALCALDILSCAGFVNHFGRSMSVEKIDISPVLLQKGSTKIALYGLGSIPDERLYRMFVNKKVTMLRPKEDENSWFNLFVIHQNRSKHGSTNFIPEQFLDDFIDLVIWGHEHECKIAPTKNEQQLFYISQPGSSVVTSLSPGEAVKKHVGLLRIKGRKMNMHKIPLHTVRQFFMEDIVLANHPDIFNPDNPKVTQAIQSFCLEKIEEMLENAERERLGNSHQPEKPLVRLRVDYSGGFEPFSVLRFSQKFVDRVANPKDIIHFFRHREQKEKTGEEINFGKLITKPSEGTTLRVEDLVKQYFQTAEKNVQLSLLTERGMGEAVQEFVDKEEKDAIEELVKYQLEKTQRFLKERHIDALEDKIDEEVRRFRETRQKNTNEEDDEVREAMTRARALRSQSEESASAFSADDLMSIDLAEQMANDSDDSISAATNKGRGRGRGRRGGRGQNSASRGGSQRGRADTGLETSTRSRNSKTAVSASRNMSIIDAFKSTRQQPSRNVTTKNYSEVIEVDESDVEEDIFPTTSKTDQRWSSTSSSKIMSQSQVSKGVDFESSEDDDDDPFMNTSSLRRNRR
T1 sequence (O60934 1-754 partner): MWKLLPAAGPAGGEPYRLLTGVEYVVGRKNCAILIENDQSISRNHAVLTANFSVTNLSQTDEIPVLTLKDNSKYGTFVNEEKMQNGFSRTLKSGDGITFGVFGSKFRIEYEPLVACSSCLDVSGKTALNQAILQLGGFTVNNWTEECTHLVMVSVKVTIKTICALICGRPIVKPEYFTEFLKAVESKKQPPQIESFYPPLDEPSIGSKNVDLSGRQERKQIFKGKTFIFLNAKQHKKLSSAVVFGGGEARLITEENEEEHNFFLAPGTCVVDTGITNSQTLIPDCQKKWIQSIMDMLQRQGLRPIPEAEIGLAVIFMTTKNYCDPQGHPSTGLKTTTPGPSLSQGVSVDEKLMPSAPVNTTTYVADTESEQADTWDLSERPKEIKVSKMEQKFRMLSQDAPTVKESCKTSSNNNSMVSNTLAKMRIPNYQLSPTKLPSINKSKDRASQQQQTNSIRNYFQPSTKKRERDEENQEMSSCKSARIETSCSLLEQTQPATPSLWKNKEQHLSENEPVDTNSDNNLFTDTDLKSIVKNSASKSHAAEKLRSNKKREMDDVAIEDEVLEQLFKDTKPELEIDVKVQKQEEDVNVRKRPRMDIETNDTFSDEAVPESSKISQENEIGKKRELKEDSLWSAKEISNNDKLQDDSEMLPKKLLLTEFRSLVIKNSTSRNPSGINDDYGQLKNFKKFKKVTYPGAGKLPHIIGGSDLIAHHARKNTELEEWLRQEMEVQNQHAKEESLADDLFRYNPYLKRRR

ATM = target: T2, ATM (Homo sapiens, UniProt Q13315, Y2755A); test: kinase assay, GST-p53 Ser-15 phosphorylation, Western blot; conditions: H2O2-activated ATM without MRN; analog 1 mM; pH 7.5, 5 mM Mg, 30 C
T2 construct: full-length, Flag-tagged and HA-tagged, transiently expressed in human 293T cells, purified as dimer

[2] = target: T1, MRN (nucleotide site of Rad50); test: ATM kinase assay, inhibition of MRN/DNA-dependent activation; conditions: wild-type ATM, ATP present; pH 7.5, 5 mM Mg, 30 C; site (Rad50 ATP pocket) inferred

T2 sequence (Q13315 2-3056 Y2755A): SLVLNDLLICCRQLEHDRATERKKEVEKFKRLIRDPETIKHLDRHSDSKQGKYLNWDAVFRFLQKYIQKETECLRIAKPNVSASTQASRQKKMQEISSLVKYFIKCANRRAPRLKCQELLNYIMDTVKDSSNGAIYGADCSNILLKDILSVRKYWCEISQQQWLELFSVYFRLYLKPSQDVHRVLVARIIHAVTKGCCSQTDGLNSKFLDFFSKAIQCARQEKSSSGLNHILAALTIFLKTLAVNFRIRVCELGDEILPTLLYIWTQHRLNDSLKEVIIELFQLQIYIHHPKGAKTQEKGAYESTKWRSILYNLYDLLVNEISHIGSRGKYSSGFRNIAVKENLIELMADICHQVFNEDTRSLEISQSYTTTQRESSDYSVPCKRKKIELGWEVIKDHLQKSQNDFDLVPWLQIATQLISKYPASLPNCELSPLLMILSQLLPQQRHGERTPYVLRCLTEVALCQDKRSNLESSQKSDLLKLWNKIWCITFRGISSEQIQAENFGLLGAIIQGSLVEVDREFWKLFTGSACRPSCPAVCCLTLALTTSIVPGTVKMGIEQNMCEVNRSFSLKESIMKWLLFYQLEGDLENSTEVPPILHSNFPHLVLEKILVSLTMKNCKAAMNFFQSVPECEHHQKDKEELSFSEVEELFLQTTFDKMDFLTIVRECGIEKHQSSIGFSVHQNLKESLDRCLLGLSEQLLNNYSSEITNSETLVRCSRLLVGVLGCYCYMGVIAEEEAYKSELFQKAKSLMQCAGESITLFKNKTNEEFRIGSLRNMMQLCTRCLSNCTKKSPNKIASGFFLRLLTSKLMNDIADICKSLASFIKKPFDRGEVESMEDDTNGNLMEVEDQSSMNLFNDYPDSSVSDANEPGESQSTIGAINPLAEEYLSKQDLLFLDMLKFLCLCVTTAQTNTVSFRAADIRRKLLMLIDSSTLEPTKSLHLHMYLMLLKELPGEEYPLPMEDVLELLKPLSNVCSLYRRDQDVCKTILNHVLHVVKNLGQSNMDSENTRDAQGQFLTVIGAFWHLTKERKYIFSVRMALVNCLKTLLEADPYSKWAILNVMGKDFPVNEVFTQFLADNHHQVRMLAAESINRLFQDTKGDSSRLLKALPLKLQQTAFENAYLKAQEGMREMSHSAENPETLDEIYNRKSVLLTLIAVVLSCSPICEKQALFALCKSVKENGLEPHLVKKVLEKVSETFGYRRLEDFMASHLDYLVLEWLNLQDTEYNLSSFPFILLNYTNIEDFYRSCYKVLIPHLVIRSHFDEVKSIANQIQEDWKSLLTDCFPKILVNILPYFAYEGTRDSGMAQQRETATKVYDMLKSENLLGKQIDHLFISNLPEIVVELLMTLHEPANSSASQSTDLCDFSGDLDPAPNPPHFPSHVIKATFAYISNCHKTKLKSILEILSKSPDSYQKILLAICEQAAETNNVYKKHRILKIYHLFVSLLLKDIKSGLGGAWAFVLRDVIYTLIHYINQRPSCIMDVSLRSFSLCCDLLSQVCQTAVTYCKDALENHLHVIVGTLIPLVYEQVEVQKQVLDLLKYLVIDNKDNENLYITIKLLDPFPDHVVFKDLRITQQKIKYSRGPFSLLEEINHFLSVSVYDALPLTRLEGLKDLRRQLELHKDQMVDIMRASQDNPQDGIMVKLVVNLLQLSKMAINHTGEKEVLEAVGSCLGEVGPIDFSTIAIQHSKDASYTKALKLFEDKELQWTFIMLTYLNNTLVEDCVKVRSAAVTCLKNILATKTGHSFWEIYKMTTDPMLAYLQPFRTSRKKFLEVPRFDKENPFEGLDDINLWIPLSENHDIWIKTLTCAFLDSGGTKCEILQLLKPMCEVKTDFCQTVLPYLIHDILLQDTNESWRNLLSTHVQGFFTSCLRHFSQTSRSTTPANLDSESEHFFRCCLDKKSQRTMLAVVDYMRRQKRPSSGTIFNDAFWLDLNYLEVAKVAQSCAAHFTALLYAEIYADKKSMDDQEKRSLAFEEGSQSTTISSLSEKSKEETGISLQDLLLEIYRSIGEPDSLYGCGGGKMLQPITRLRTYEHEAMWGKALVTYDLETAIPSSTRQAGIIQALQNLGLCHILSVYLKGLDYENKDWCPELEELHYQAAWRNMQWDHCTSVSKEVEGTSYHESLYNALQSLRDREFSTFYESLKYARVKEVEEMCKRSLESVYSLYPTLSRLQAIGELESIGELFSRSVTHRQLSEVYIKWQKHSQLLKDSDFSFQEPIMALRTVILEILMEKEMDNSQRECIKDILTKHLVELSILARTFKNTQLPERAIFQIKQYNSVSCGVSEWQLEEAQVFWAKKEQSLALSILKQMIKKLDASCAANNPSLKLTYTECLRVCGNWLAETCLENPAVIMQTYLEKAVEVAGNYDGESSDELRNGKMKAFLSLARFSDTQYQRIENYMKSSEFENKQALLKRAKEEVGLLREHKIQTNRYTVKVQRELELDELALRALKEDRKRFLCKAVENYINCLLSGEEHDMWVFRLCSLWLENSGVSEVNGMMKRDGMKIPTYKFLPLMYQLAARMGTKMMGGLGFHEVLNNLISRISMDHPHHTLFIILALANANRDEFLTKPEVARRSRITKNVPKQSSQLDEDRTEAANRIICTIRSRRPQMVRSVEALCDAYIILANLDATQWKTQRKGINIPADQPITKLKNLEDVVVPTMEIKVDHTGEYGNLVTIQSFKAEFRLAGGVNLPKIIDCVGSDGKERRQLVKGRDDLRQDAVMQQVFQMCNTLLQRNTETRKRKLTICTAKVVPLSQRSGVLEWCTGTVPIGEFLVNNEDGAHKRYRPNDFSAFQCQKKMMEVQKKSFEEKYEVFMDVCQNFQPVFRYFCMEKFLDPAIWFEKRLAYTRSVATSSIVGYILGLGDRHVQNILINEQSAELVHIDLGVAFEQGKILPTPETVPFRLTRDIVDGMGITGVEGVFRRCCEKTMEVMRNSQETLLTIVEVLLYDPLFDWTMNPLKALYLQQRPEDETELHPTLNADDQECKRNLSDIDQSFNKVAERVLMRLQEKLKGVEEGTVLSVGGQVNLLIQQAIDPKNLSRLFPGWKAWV

SMILES | ATM kinase assay with analog-sensitive ATM Y2755A [1] | kinase assay, GST-p53 Ser-15 phosphorylation, Western blot (ATM) | ATM kinase assay, inhibition of MRN/DNA-dependent activation [2]
Nc1ncnc2c1ncn2[C@@H]1O[C@H](COP(=O)(O)OP(=O)(O)NP(=O)(O)O)[C@@H](O)[C@H]1O [AMP-PNP, adenosine 5′-(β,γ-imino)triphosphate] | Y2755A ATM phosphorylated p53 in the presence of MRN/DNA, N6-(furfuryl)-ATP, and AMP-PNP | – | –
CCCC(C)Nc1ncnc2c1ncn2[C@@H]1O[C@H](COP(=O)(O)OP(=O)(O)OP(=O)(O)O)[C@@H](O)[C@H]1O (stereo partly drawn) [N6-(1-methylbutyl)-ATP, N6-(1-methylbutyl)adenosine-5′-O-triphosphate] | – | N6-(1-methylbutyl)-ATP was utilized by the Y2755A mutant ATM | N6-(1-methylbutyl)-ATP inhibited the activation of wild-type ATM by MRN/DNA
